The text below walks through data of patent US10611740B2, “Aryl dihydro-2H-benzo[b][1,4]oxazine sulfonamide and related compounds for use as agonists of RORγ and the treatment of disease” (Lycera Corporation, priority 2015, dated 2020).

SMILES strings stand for the structures.

What is called EC50 is the midpoint of the concentration-response curve. A high value points to a less potent agent.

In experiment [1] the target is T1, RORγ-LBD (Homo sapiens, UniProt P51449).
T1 construct: made in house; host or cells: SF9 cells (baculovirus)
T1 sequence (P51449 269-508 limits assumed): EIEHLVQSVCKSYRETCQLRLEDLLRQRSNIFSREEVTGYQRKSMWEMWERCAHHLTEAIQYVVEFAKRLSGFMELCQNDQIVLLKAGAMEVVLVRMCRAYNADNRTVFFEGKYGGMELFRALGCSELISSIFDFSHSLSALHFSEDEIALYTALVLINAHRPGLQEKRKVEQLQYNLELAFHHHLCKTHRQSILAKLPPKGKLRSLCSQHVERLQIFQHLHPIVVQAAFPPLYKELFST
As to the kind of experiment: RORγ-Ligand Binding Domain (LBD) TR-FRET Assay.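 As to TR-FRET Assay Max Response: 665/615 nm ratio relative to signal without ursolic acid or compound set at 100.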 The format is biochemical. The gist of the method: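 Lysate from SF9 cells expressing His-RORγ-LBD is diluted to about 3 nM final in 50 mM Tris pH 7.0 assay buffer. A biotin-tagged SRC1 LXXLL peptide goes in at 200 nM final, plus ursolic acid at 2 μM final. Test compounds carry 1% DMSO final; signal read by TR-FRET.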
On the technique in general: TR-FRET usually uses a lanthanide donor and a delayed reading to cut background.

Experiment [2] deals with T2, Gal4-RORγ-LBD (Homo sapiens, UniProt P51449).
T2 construct: expressed in transfected cells; host or cells: HEK-293 cells (pcDNA3.1neo plasmid)
T2 sequence (P51449 269-508 limits assumed): T1 sequence (P51449 269-508 limits assumed)
As to the kind of experiment: Gal4-RORγ Luciferase Reporter Assay in HEK-293T Cells. Format: cell-based. As to conditions: HEK-293 cells. The gist of the method: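 In transfected HEK-293 cells (Gal4-RORγ-LBD, Gal4-luciferase), test agents with 2 μM ursolic acid were incubated overnight at 37 °C before luminescent detection. Values are relative to the ursolic-acid-free, compound-free signal (100).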
For orientation: In a reporter assay the amount or activity of a reporter protein is the signal.

Setting [3] is: luciferase reporter, with 2 μM ursolic acid.

`COc1cc(S(=O)(=O)N2C[C@H](CNC(=O)[C@@](C)(O)C(F)(F)F)Oc3ccc(-c4cc(F)ccc4F)cc32)ccc1F` [Compound 30X, (R)-N-(((S)-6-(2,5-difluorophenyl)-4-((4-fluoro-3-methoxyphenyl)sulfonyl)-3,4-dihydro-2H-benzo[b][1,4]oxazin-2-yl)methyl)-3,3,3-trifluoro-2-hydroxy-2-methylpropanamide]: in experiment [1], the EC50 was under 500 nM and the “TR-FRET Assay Max Response” value is given as “*** (The symbol “***” indicates a value in the range of greater than 150 to 200)”. Moreover, in experiment [2] (setting [3]), the EC50 was under 500 nM and the “Gal4-RORγ Assay Max Response” value was “* (The symbol “*” indicates a value in the range of 25 to 90)”.

Turning to `O=C(NC[C@H]1CN(S(=O)(=O)c2cccc(C(F)(F)F)c2)c2cc(-c3cc(F)ccc3F)ccc2O1)C1CC1` [Compound 30Y, (S)-N-((6-(2,5-difluorophenyl)-4-((3-(trifluoromethyl)phenyl)-sulfonyl)-3,4-dihydro-2H-benzo[b][1,4]oxazin-2-yl)-methyl)cyclopropane-carboxamide], in experiment [1], the EC50 was under 500 nM and the “TR-FRET Assay Max Response” value is on record as “**** (The symbol “****” indicates a value greater than 200)”. Further, in experiment [2] (setting [3]), the EC50 is under 500 nM and the “Gal4-RORγ Assay Max Response” value is on record as “** (The symbol “**” indicates a value in the range of greater than 90 to 150)”.

For the molecule `O=C(NC[C@H]1CN(S(=O)(=O)c2cccc(C(F)(F)F)c2)c2cc(-c3cc(F)ccc3F)ccc2O1)C1COC1` [Compound 30Z, (S)-N-((6-(2,5-difluorophenyl)-4-((3-(trifluoromethyl)phenyl)-sulfonyl)-3,4-dihydro-2H-benzo[b][1,4]oxazin-2-yl)methyl)oxetane-3-carboxamide], in experiment [1], the EC50 is under 500 nM and the “TR-FRET Assay Max Response” value was “**** (The symbol “****” indicates a value greater than 200)”. In experiment [2] (setting [3]), the EC50 was under 500 nM and the “Gal4-RORγ Assay Max Response” value is reported as “* (The symbol “*” indicates a value in the range of 25 to 90)”.

In the case of `CC(C)(C[C@H]1CN(S(=O)(=O)c2cccc(C(F)(F)F)c2)c2cc(-c3cc(F)ccc3F)ccc2O1)C(=O)O` [Compound 31, (S)-3-(6-(2,5-difluorophenyl)-4-((3-(trifluoromethyl)phenyl)sulfonyl)-3,4-dihydro-2H-benzo[b][1,4]oxazin-2-yl)-2,2-dimethylpropanoic Acid], in experiment [1], the EC50 was under 500 nM and the “TR-FRET Assay Max Response” value is “**** (The symbol “****” indicates a value greater than 200)”. For the same molecule, in experiment [2] (setting [3]), the EC50 was under 500 nM and the “Gal4-RORγ Assay Max Response” value is reported as “** (The symbol “**” indicates a value in the range of greater than 90 to 150)”.

As for `CC(C)(CC[C@H]1CN(S(=O)(=O)c2cccc(C(F)(F)F)c2)c2cc(-c3cc(F)ccc3F)ccc2O1)C(=O)O` [Compound 32A, (S)-4-(6-(2,5-difluorophenyl)-4-((3-(trifluoromethyl)phenyl)-sulfonyl)-3,4-dihydro-2H-benzo[b][1,4]oxazin-2-yl)-2,2-dimethylbutanoic acid], in experiment [1], the EC50 was under 500 nM and the “TR-FRET Assay Max Response” value is “**** (The symbol “****” indicates a value greater than 200)”. In experiment [2] (setting [3]), the EC50 was under 500 nM and the “Gal4-RORγ Assay Max Response” value is on record as “** (The symbol “**” indicates a value in the range of greater than 90 to 150)”.

For `CC(C)(C[C@H]1CN(S(=O)(=O)c2cccc(C(F)(F)F)c2)c2cc(-c3cccc(C(F)(F)F)c3Cl)ccc2O1)C(=O)O` [Compound 32AA, (S)-3-(6-(2-chloro-3-(trifluoromethyl)phenyl)-4-((3-(trifluoromethyl)phenyl)sulfonyl)-3,4-dihydro-2H-benzo[b][1,4]-oxazin-2-yl)-2,2-dimethyl-propanoic acid], in experiment [1], the EC50 is under 500 nM and the “TR-FRET Assay Max Response” value is listed as “**** (The symbol “****” indicates a value greater than 200)”. In addition, in experiment [2] (2 μM ursolic acid), the EC50 was under 500 nM and the “Gal4-RORγ Assay Max Response” value is “** (The symbol “**” indicates a value in the range of greater than 90 to 150)”.
